Laboratory results from US8450318B2 (priority 2007, dated 2013).
Values after ≈ are worked out from the molar mass of the structure shown. Read-outs that look alike come from different tables or passages of the source.

Tests used:
[1] = test system: Para-influenza-3 virus; assay: Antiviral activity, Para-influenza-3 virus; type: cell-based; settings: Table 3, reference compounds
[2] = test system: Reovirus-1; assay: Antiviral activity, Reovirus-1; type: cell-based; settings: Table 3, reference compounds
[3] = test system: Sindbis virus; assay: Antiviral activity, Sindbis virus; type: cell-based; settings: Sindbis virus; Table 3, reference compounds
[4] = test system: Coxsackie virus B4; assay: microbe, parasite or virus in culture; type: cell-based; settings: Enterovirus B, B4; Table 3, reference compounds
[5] = test system: Punta Toro virus; assay: Antiviral activity, Punta Toro virus; type: cell-based; settings: Punta Toro virus; Table 3, reference compounds
[6] = test system: Herpes simplex virus-1 (KOS); assay: Antiviral activity, Herpes simplex virus-1 (KOS); type: cell-based; settings: Human alphaherpesvirus 1; Table 4, reference compounds
[7] = test system: Herpes simples virus-2 (G); assay: Antiviral activity, Herpes simplex virus-2 (G); type: cell-based; settings: Human alphaherpesvirus 2; Table 4, reference compounds
[8] = test system: Vaccinia virus; assay: microbe, parasite or virus in culture; type: cell-based; settings: Orthopoxvirus vaccinia, read-out: EC50 Vaccinia virus
[9] = test system: Vesicular stomatitis virus; assay: microbe, parasite or virus in culture; type: cell-based; settings: read-out: EC50 Vesicular stomatitis virus
[10] = test system: Herpes simplex virus-1 TK KOS-ACV^r; assay: Antiviral activity, Herpes simplex virus-1 TK KOS-ACVr; type: cell-based; settings: Human alphaherpesvirus 1, read-out: EC50 Herpes simplex virus-1 TK KOS-ACV^r
[11] = test system: Feline Corona virus; assay: Activity on feline corona virus in CRFK cells; type: cell-based
[12] = test system: human corona (SARS) virus; assay: microbe, parasite or virus in culture; type: cell-based; settings: Severe acute respiratory syndrome coronavirus, read-out: Human Corona virus EC50
[13] = in vitro; settings: human, CEM cells
[14] = test system: HIV-2; assay: Antiretrovirus assay, HIV-2; settings: Human immunodeficiency virus 2, read-out: EC50 HIV-2
[15] = test system: HIV-1; assay: microbe, parasite or virus in culture; settings: Human immunodeficiency virus 1, CCRF-CEM, read-out: EC50 HIV-1
[16] = test system: Influenza A H1N1 subtype; assay: Anti-influenza activity in MDCK cells, Influenza A H1N1; type: cell-based; settings: Influenza A virus, reference compounds
Text: (§1) MDCK cells (Madin Darby canine kidney cells) have been used for the experiments shown in table 5 using standard procedures known in the art.

[17] = test system: Influenza A H3N2 subtype; assay: Anti-influenza activity in MDCK cells, Influenza A H3N2; type: cell-based; settings: Influenza A virus, reference compounds
Text: as §1

Structure (SMILES)	EC50 [1] [µM]	EC50 [2] [µM]	EC50 [3] [µM]	EC50 [4] [µM]	EC50 [5] [µM]	EC50 [6] [µM]	EC50 [7] [µM]	EC50 [8] [µM]	EC50 [9] [µM]	EC50 [10] [µM]	EC50 [11] [µg/mL]	EC50 [12] [µg/mL]	melting point [°C]	CC50 [13] [µg/mL]	EC50 [14] [µg/mL]	EC50 [15] [µg/mL]	EC50 ([16]; H1N1, MTS, read-out: EC50 Influenza A H1N1 subtype MTS) [µM]	EC50 ([16]; H1N1, visual CPE, read-out: EC50 Influenza A H1N1 subtype visual CPE score) [µM]	EC50 ([17]; H3N2, MTS, read-out: EC50 Influenza A H3N2 subtype MTS) [µM]	EC50 ([17]; H3N2, visual CPE, read-out: EC50 Influenza A H3N2 subtype visual CPE score) [µM]
O=c1[nH]c(=O)n([C@H]2C[C@H](O)[C@@H](CO)O2)cc1/C=C/Br [Brivudin]	> 250	> 250	> 250	> 250	> 250	0.016	10	2	> 250	50										
CCc1c(CNc2cc(C)cc(C)n2)c(CC)c(CNc2cc(C)cc(C)n2)c(CC)c1CNc1cc(C)cc(C)n1 [Compound 3b, 1,3,5-Tris[(4,6-dimethyl-pyridin-2-yl)aminomethyl]-2,4,6-triethyl-benzene]											1.1 ± 0.6 (≈ 1.95 µM)	8.6 ± 4.9 (≈ 15.2 µM)	183 to 185	2.87 ± 0.23 (≈ 5.08 µM)	> 0.8	> 0.8				
NC(=O)c1ncn([C@@H]2O[C@H](CO)[C@@H](O)[C@H]2O)n1 [Ribavirin]	250	150	250	> 250	150	50	150	150	> 250	150							9	8.9	8.9	8.9
